In PubChem BioAssay AID1850 (Southern Research Specialized Biocontainment Screening …, 2009):

Tested on: Salmonella Typhi PhoP-promoter GFP reporter, fluorescence, 4 h
Experiment: PhoP regulon inhibitors, Salmonella typhi PhoP promoter GFP reporter, confirmatory (AID 1850)

| Compound | IC50 [µM] |
| --- | --- |
| CC/C(=N\Nc1ccnc2cc(Cl)ccc12)c1ccc(O)cc1 | 50.9 |
| CN1CCN(C2=Cc3ccccc3Sc3cc(F)ccc32)CC1 | 66.6 |
| CO/N=C(/C(=O)N[C@@H]1C(=O)N2C(C(=O)O)=CCS[C@H]12)c1cnc(N)s1 | 18.6 |
| C#CCOCCOCCOCCNc1nc(N2CCN(C(=O)CCCCCCCCCCNC(=O)Cn3cc(CCCCCN)nn3)CC2)nc(N2CCN(C(=O)CCCCCCCCCCNC(=O)[C@H]([C@@H](C)CC)n3cc(CCCCN=C(N)N)nn3)CC2)n1 | 28.3 |
| OC(CN1CCCCC1)Cn1c2ccccc2c2cc(Br)ccc21 (stereo not drawn) | 69.7 |
| CCCCCC(=O)NNC(=S)NC(C)=O | 32.9 |
| Cc1ccc(Nc2cc(C)c3c(O)cccc3n2)cc1C | 6.64 |
| CCn1cc(C(=O)O)c(=O)c2cc(F)c(N3CCN(C(=S)NC(=O)c4ccccc4)CC3)cc21 | 18 |
| Cc1cc([N+](=O)[O-])cc(/C=N/n2c(C)nc3ccccc3c2=O)c1O | 77.2 |
| O=C1OCC(CO)(CO)N=C1NNc1ccc(Cl)c(Cl)c1 | 47.9 |
| O=C(COc1ccc(Br)cc1CNCCc1ccccc1)NCc1ccccc1 | 106 |
| Cc1cc(N/N=C/c2ccc(F)cc2)nc(NCc2ccccc2)n1 | 55.2 |
| Cc1nnc(N/N=C/c2ccccn2)[nH]c1=O | 32.8 |
| COc1c(N2CCN(C(=S)Nc3ccccc3F)C(C)C2)c(F)cc2c(=O)c(C(=O)O)cn(C3CC3)c12 (stereo not drawn) | 1.63 |
| Cc1occc1C(=O)N/N=C/c1cccs1 | 69.7 |
| CC(NCC(O)COc1ccc2ccccc2c1)c1ccccc1 (stereo not drawn) | 79.8 |
| CC[C@H]1OC(=O)[C@H](C)[C@@H](O[C@H]2C[C@@](C)(OC)[C@@H](O)[C@H](C)O2)[C@H](C)[C@@H](O[C@@H]2O[C@H](C)C[C@H](N(C)C)[C@H]2O)[C@](C)(O)C[C@@H](C)[C@@H]2N[C@@H](COCCOC)O[C@H]([C@H]2C)[C@]1(C)O | 8.02 |
| CC(C)(C)c1ccc(OCCCNC2CCCC2)cc1 | 83.2 |
| CN(C)CCCN(C(=O)CCc1ccccc1)c1nc2ccc(Br)cc2s1 | 69 |
| Oc1ccc(C2NCc3ccccc3-n3cccc32)cc1Cl (stereo not drawn) | 150 |
| c1cc2c(cc1C1CCCCC1)c1c3n2CCN=C3CCC1 | 51.1 |
| CCn1cc(C(=O)O)c(=O)c2cc(F)c(N3CCN(C)CC3)cc21 | 0.43 |

| Compound | IC50 [µM] |
| --- | --- |
| COc1ccc(S(=O)(=O)N2CN3CCN(C3)C2)cc1 | 144 |
| CN(C)CC/C=C1/c2cc(F)ccc2Sc2ccc(Cl)cc21 | 65.9 |
| CN(O)/C=c1/ccc2c(n1)C(=O)C=CC=2 | 34.8 |
| CC1COc2c(N3CCN(C)CC3)c(F)cc3c(=O)c(C(=O)O)cn1c23 (stereo not drawn) | 0.31 |
| CCn1nc(C(=O)O)c(=O)c2cc3c(cc21)OCO3 | 34.6 |
| O=C(N/N=C/c1cc(Cl)cc([N+](=O)[O-])c1O)C1CC1 | 106 |
| OC(c1cc(C(F)(F)F)nc2c(C(F)(F)F)cccc12)C1CCCCN1 (stereo not drawn) | 20.3 |
| O=C(/C=C(\O)c1ccccc1)C(=O)NNC(=O)c1ccccc1 | 23.8 |
| CNC[C@H](CC1CCCCC1)NC[C@H](Cc1ccccc1)NCCC12CC3CC(CC(C3)C1)C2 | 12.8 |
| O=C(/C=C/c1ccc(F)cc1)NC(=S)NNC(=O)c1cnccn1 | 28.6 |
| O=C(C[n+]1cnn(CC(=O)c2ccc(Cl)cc2Cl)c1)c1ccc([N+](=O)[O-])cc1 | 37.4 |
| CCCCOc1ccc(C(=O)OC2CC(C)N(C)CC2C)cc1 (stereo not drawn) | 86.3 |
| O=C(CNC(=O)c1cccc(F)c1)N/N=C/c1ccc([N+](=O)[O-])s1 | 20 |
| Oc1cccc(C=NCc2ccccc2)c1O | 51.3 |
| O=C(CSc1nc2ccccc2s1)N/N=C/c1cc([N+](=O)[O-])ccc1O | 72.5 |
| COc1ccc2c(C(=O)CCl)c[nH]c2c1 | 66.9 |
| CCCCCCCCCCOC(=O)Cn1c(COc2ccc(Cl)cc2)[n+](C)c2ccccc21 | 10.3 |
| CCOC(=O)C1=C(C(C)=O)C(c2cccnc2)C(C#N)=C(N)O1 (stereo not drawn) | 91.5 |
| CCCCc1ccc(NC2=NCCCS2)cc1 | 140 |
| Cc1ccc(NC(=O)COc2ccccc2CNC(C)(C)CC(C)(C)C)cc1 | 91.6 |
| O=C(N/N=C/c1ccc([N+](=O)[O-])o1)C(O)c1ccccc1 (stereo not drawn) | 35.2 |
